These results are taken from BindingDB's records for doi:10.1021/jm301186p (Universidad De Zaragoza, 2012).

The test can be described thus: Inhibition of aggregation of human DHFR-fused amyloid beta (1 to 42) expressed in yeast harboring erg6delta assessed as increase in yeast viability measured up to 20 hrs in presence of MTX.
The term IC50 denotes the concentration at which inhibition is half-maximal. For `O=S(=O)(Nc1ccc(N2CCCCC2)cc1)c1cc(Cl)sc1Cl`, the IC50 came out at 700 nM.
The same measure for `Cc1nc2sc3c(c2c(=O)o1)CCCC3`: 1200 nM; for `O=C(Nc1ccccc1)Nc1ccc(Cl)cc1[N+](=O)[O-]`: 900 nM; for `Nc1c(S(=O)(=O)c2ccc(Cl)cc2)cnc2cc(-c3ccccc3)nn12`: 2300 nM.
